In publication PMC7730235, “Discovery of a Novel Class of Covalent Dual Inhibitors Targeting the Protein Kinases BMX and BTK” (International Journal of Molecular Sciences, 2020):

Key:
[1] = molecular target: T1, BMX (Homo sapiens, UniProt P51813); assay: Radiometric kinase assay (Reaction Biology HotSpot); assay type: biochemical; settings: radiometric HotSpot, five-dose singlicate, [ATP] = 10 μM
T1 construct: purchased Reaction Biology Corporation
T1 sequence (P51813 1-675): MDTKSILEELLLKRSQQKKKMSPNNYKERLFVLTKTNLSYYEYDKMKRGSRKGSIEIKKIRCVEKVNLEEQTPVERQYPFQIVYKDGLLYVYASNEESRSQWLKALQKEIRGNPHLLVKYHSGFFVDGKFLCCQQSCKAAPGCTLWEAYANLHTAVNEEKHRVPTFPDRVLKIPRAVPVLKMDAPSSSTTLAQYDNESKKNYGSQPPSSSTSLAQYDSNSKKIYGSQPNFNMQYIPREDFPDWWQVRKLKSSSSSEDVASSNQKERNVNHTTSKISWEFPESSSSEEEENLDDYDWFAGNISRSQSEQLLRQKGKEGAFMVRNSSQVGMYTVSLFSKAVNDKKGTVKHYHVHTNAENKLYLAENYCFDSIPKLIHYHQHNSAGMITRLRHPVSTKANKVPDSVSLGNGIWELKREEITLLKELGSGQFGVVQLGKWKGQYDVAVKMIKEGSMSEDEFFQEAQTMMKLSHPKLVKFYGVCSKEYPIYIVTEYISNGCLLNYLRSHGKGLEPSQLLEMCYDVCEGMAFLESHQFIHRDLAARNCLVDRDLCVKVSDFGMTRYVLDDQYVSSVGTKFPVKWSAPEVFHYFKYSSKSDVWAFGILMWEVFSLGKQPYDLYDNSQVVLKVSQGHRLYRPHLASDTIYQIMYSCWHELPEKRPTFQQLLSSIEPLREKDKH
Protocol: (§1) If not mentioned differently, in vitro profiling of compounds was performed at Reaction Biology Corporation using the HotSpot™ assay platform.

[2] = molecular target: T2, kinase domain of BMX (Homo sapiens, UniProt P51813); assay: Thermal shift (ΔTm) assay; assay type: binding; settings: 2 μM kinase domain, 10 μM inhibitor; mean ± SD of at least three measurements
T2 construct: The kinase domains of JAK3 and BMX at 2 μM
Protocol: (§2) The kinase domains of JAK3 and BMX at 2 μM were mixed with the inhibitors at 10 μM, and subsequently SyPRO orange dye (Invitrogen Carlsbad, CA, USA) was added. The thermal shift assay and data evaluation were performed as described previously using a Real-Time PCR Mx3005p machine (Stratagene, La Jolla, CA, USA).

[3] = molecular target: T3, kinase domain of JAK3 (Homo sapiens, UniProt P52333); assay: Thermal shift (ΔTm) assay; assay type: binding; settings: 2 μM kinase domain, 10 μM inhibitor; mean ± SD of at least three measurements
T3 construct: The kinase domains of JAK3 and BMX at 2 μM; made in house
Protocol: as §2

[4] = molecular target: T4, Full length BMX (C-terminal NanoLuc fusion) (Homo sapiens, UniProt P51813); assay: Cellular NanoBRET target engagement assay in HEK293T cells; assay type: cell-based; settings: 0.5 µM Tracer K4, 2 h incubation
T4 construct: Full length BMX and BTK was cloned into pFC32K; expressed in transfected cells; host or cells: HEK293T
T4 sequence (P51813 1-675): T1 sequence (P51813 1-675)
Protocol: (§3) Full length BMX and BTK was cloned into pFC32K (Promega, Madison, WI, USA) for expression of a C-terminal NanoLuc fusion. The plasmids were transfected into HEK293T cells cultured in DMEM (Gibco, Waltham, MA, USA) supplemented with 10% fetal bovine serum (Gibco, Waltham, MA, USA) and Penicillin/Streptamycin (Gibco, Waltham, MA, USA). NanoBRET assays were performed using the protocol published previously. Briefly, after transfection and 20 h incubation cells were harvested and subsequently resuspended in OptiMEM (Gibco, Waltham, MA, USA). Cells were aliquoted onto […] (Greiner, Kremsmünster, Austria), and inhibitors as well as 0.5 µM Tracer K4 (Promega) for BMX or 0.5 µM Tracer K5 (Promega, Madison, WI, USA) for BTK were added using an ECHO acoustic dispenser. The plates were incubated at 37 °C with 5% CO2 for 2 h prior to the addition of both NanoBRET NanoGlo substrate (Promega, Madison, WI, USA) and extracellular NanoLuc inhibitor. BRET luminescence (450 nm for donor emission and 610 nm for BRET signal) was measured using PHERAstar FSX plate reader (BMG Labtech, Ortenberg, Germany). Milli-BRET units (mBU) were calculated as a ratio between BRET signal and the overall measured luminescence. A dose–response fitting was applied and IC50 values were calculated using the Prism software. […] Experiments were performed as tripicates and repeated at least three times.

[5] = molecular target: T5, Full length BTK (C-terminal NanoLuc fusion) (Homo sapiens, UniProt Q06187); assay: as above; assay type: cell-based; settings: 0.5 µM Tracer K5, 2 h incubation
T5 construct: Full length BMX and BTK was cloned into pFC32K; expressed in transfected cells; host or cells: HEK293T
T5 sequence (Q06187 whole entry, the tested form may be a part): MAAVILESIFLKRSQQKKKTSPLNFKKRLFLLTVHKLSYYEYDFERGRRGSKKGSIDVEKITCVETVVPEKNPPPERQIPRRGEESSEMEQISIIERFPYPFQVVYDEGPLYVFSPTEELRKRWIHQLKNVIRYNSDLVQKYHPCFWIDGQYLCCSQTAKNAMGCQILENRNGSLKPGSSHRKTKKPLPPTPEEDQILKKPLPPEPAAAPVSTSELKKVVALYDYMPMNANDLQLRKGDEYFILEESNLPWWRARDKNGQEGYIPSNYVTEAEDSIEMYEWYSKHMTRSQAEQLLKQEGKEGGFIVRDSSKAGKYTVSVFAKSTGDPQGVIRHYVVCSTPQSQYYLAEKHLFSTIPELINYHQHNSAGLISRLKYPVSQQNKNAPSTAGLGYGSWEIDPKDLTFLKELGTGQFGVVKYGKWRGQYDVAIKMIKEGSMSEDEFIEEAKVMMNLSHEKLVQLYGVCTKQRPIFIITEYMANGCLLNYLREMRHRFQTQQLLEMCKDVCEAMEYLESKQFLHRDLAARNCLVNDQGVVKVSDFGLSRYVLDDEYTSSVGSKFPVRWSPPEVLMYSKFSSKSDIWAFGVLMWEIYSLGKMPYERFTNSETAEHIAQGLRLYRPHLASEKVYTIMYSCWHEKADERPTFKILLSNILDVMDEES
Protocol: as §3

[6] = molecular target: T2, kinase domain of BMX; assay: Mass spectrometric investigation of covalent binding to BMX (ESI-TOF); settings: 4 °C; for covalent labeling of BMX (in words): 1.5-fold molar excess, complete labeling refers to 30 min
Protocol: The kinase domain of BMX was diluted to 0.05 mM with buffer containing 20 mM Tris pH 8.0, 200 mM NaCl, 0.5 mM TCEP (pH 7.0) and was subsequently mixed with 0.075 mM inhibitors (ratio of protein to inhibitor of 1:1.5). The mixture was incubated at 4°C. The samples were taken at different time points, the reaction stopped by diluting the sample with a 200-fold excess of 1% formic acid. The denatured protein and the adducts were assessed using electrospray time-of-flight (ESI-TOF) mass spectrometry.

[7] = molecular target: T6, TXK (Homo sapiens, UniProt P42681); assay: Radiometric kinase assay (Reaction Biology HotSpot); assay type: biochemical; settings: radiometric HotSpot, five-dose singlicate, [ATP] = 10 μM
T6 construct: purchased Reaction Biology Corporation
T6 sequence (P42681 1-527): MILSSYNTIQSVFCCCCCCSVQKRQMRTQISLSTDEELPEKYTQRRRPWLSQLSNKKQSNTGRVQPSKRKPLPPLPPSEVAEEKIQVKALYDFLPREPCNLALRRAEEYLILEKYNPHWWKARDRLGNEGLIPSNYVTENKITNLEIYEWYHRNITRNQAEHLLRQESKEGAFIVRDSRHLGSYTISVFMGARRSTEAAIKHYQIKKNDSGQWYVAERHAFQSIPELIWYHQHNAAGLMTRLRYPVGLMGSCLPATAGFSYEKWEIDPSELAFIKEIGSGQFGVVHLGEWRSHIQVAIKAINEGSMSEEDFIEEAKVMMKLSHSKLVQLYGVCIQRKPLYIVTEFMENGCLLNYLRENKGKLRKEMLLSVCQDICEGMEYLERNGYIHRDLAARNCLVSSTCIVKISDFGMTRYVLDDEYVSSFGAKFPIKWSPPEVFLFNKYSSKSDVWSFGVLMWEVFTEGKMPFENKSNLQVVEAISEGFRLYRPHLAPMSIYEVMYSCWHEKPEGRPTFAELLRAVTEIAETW
Protocol: as §1

[8] = molecular target: T7, JAK3 (Homo sapiens, UniProt P52333); assay: as above; assay type: biochemical; settings: radiometric HotSpot, five-dose singlicate, [ATP] = 10 μM
T7 construct: purchased Reaction Biology Corporation
T7 sequence (P52333 1-1124): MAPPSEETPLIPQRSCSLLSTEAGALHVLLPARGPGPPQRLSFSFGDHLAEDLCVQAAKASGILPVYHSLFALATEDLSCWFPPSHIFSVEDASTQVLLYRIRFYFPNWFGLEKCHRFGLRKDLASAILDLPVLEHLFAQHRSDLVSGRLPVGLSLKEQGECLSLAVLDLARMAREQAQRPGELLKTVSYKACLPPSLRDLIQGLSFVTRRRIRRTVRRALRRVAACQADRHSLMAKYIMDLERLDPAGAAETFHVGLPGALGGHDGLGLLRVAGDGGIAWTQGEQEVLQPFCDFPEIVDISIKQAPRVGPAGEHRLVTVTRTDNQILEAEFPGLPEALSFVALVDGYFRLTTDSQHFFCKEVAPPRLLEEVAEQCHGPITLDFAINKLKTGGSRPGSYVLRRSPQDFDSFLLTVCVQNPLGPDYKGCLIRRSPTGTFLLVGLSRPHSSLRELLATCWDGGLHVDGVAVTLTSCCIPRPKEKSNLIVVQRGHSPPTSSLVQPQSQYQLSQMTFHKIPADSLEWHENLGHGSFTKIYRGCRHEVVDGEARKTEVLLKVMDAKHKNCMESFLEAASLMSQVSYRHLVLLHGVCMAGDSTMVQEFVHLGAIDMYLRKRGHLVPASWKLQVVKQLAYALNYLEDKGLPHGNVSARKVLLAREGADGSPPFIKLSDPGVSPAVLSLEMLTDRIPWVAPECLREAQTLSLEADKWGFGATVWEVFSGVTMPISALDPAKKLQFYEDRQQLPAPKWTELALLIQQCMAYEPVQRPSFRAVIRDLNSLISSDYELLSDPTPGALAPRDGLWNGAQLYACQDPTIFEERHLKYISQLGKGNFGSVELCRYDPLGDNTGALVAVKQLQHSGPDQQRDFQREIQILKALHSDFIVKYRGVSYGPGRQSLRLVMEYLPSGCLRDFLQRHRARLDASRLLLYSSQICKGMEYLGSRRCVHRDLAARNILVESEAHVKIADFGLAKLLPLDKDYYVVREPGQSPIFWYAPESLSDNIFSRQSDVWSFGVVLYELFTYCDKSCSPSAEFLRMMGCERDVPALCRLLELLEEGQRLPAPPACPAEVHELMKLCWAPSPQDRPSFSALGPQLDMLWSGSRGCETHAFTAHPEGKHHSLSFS
Protocol: as §1

[9] = 1.5-fold molar excess of inhibitor, 30 min
[10] = 1.5-fold molar excess of inhibitor, 60 min
[11] = 1.5-fold molar excess of inhibitor
[12] = 1.5-fold molar excess of inhibitor, 240 min

Row | SMILES | IC50 [1] [nM] | ΔTm at 10 µM [2] [°C] | ΔTm at 10 µM [3] [°C] | IC50 [4] [nM] | IC50 [5] [nM] | BMX covalent adduct fraction, 30 min [6, 9] [%] | BMX covalent adduct fraction, 60 min [6, 10] [%] | BMX covalent adduct fraction, 120 min [6, 11] [%] | BMX covalent adduct fraction, 240 min [6, 12] [%] | covalent labeling of BMX (in words) [6] | IC50 [7] [nM] | native (unmodified) BMX fraction, 30 min [6, 9] [%] | native (unmodified) BMX fraction, 60 min [6, 10] [%] | native (unmodified) BMX fraction, 120 min [6, 11] [%] | native (unmodified) BMX fraction, 240 min [6, 12] [%] | IC50 [8] [nM]
1 | C=CC(=O)Nc1cccc(-c2c[nH]c3ncc(NC(=O)Cc4cccs4)cc23)c1 [Compound 12i, N-(3-(5-(2-(thiophen-2-yl)acetamido)-1H-pyrrolo[2,3-b]pyridin-3-yl)phenyl)acrylamide] | 16 | 11.5 | 10.1 | 17 ± 7 | 37 ± 10 | 100 | 100 | 100 | 100 | complete labeling |  |  |  |  |  | 
2 | CCC(=O)Nc1cccc(-c2c[nH]c3ncc(C(=O)NC4CCCC4)cc23)c1 [Compound 11b, N-cyclopentyl-3-(3-propionamidophenyl)-1H-pyrrolo[2,3-b]pyridine-5-carboxamide] | > 10000 |  |  | > 10000 | 3710 ± 1200 |  |  |  |  | no modification was detectable | > 10000 | 100 | 100 | 100 | 100 | 
3 | C=CC(=O)Nc1cccc(-c2c[nH]c3ncc(NC(=O)CC4CCCC4)cc23)c1 [Compound 12g, N-(3-(5-(2-cyclopentylacetamido)-1H-pyrrolo[2,3-b]pyridin-3-yl)phenyl)acrylamide] | 6 | 11.88 ± 0.07 | 11.9 ± 0.23 | 3 ± 1 | 13 ± 2 | 100 | 100 | 99 | 100 | complete labeling |  |  |  | 1 |  | > 10000
